Data set [1] relates to MDA-MB-231. As to the kind of experiment: Cell viability (MTT assay) in TNBC cell line MDA-MB-231. It is filed as cell-based. The note with it: MDA-MB-231, MTT assay, 72 hours, mean ± s.e.m., n = 3. The procedure: Cell Culture. All cell lines were purchased from ATCC and routinely grown in a humidified incubator at 37° C. with 5-10% CO2. MDA-MB-468, MDA-MB-231, MDA-MB-175, MRCS, RPE-NEO, HCT116, and K562N were grown in DMEM supplemented with 10% FBS, 1% amphotericin and 1% penicillin/streptomycin. A2780 cells were grown in RPMI supplemented with 10% FBS, 1% amphotericin, and 1% penicillin/streptomycin, and 4 mM glutamine. All supplements along with PBS and trypsin-EDTA were purchased from Corning Inc. and used as is.
Cell Viability of AuTri-1-10 (Adherent Cell Lines). The cell viability of all 10 complexes were performed in MDA-MB-231. Additionally, AuTri-9 was evaluated in the following: MDA-MB-175, MA-MB-468, A2780, HCT116, OVCAR8 and MRCS. Cells were grown to confluency and trypsin was added to detach and harvest cells. The cells were washed with 2 mL of PBS and suspended in 10 mL of the appropriate media. The cells were centrifuged at 2000 rpm for 5 minutes and the pellet washed with 2 mL of PBS then suspended in 5 mL of the appropriate media. The cells were plated at a density of 2,000 cells/well in a 96-well clear bottom plate and allowed to adhere overnight at 37° C. with 5-10% CO2. The compounds were prepared as a stock in DMSO and used fresh. The compounds were added at seven concentrations (<1% DMSO) with a 3× serial dilution starting at 50 μM for the highest concentration and incubated at 37° C. for 72 h with 5-10% CO2. 1% DMSO were added to control wells as the vehicle control. The medium was removed and a solution of MTT (100 μL, prepared by dissolving MTT at 5 mg/mL and diluting by 10x with DMEM) was added to each well and incubated for 4 h at 37° C. with 5-10% CO2. The dye was removed from each well and 100 μL of DMSO was added to induce cell lysis. The plates were read using a Genios plate reader (λ=570 nm).

For data set [2] the following is noted: based on gold; cited from earlier work.
The subject of data set [3] is MDA-MB-231. Nature of the data set: Transmission electron microscopy of mitochondrial morphology. The settings on record: AuTri-9 10 μM for 1 h. It is filed as cell-based. The procedure: Transmission Electron Microscopy. MDA-MB-231 cells were seeded in 6 well plates and allowed to grow to 85% confluency. The cells were then treated with AuTri-9 at a concentration of 10 μM (<1% DMSO) for 1 h at 37° C. Growth media were removed and immediately and added 3% glutaraldehyde at 4° C. in 0.1 M Sorenson's or Cacodylate Buffer. After 5 minutes remove fix and replace with fresh fixative, leave for 45 min-1 hr at 4° C., washed in 0.1 M buffer w/5% sucrose 4×, 5 minutes each. Post fix, the cells were stained with 1% OsO4 in 0.1 M buffer for 1 hr at 4° C. and washed in 0.1 M buffer 1×. The cells were dehydrated in graded ethanols, 5 minutes each, from 50% through 100% and absolute ethanol (2×) at 4° C. After the last alcohol wash remove the residual alcohol with a small pipette and immediately add straight resin (14.5 g Eponate 12, 8.0 g DDSA, 7.15 g NMA, and 0.85 gm BDMA) to the dish. Swirl the dish and then remove as much of the resin, (which may contain residual alcohol), with a plastic pipette being careful not to disturb the cell layer. Then add straight resin 2× for 1-2 hours and place under the lamp, on a shaker. Pour off the 2nd straight resin wash, let the plate drain well (leaving a layer of resin on the bottom) and invert labeled beem capsules into each well that have had the conical ends removed. […]

As to `c1cnc2c(c1)ccc1cccnc12` [1,10-phenantrholine], 7.21 ± 1.68 µM corresponded to half-maximal inhibition in the data set on MDA-MB-231 [1] (Homo sapiens) (IC50). For the compound `Cc1ccnc2c1ccc1c(C)ccnc12` [4,7-dimethylphenanthroline], half-maximal inhibition in the data set on MDA-MB-231 [1] (Homo sapiens) (IC50) was put at 14.1 ± 2.58 µM. `CC(=O)OC[C@H]1O[C@@H]([S-])[C@H](OC(C)=O)[C@@H](OC(C)=O)[C@@H]1OC(C)=O.CCP(CC)CC.[Au+]` [Auranofin] had an IC50 in the data set on MDA-MB-231 [1] of 1.31 ± 0.15 µM. Also, the “MTD (maximum tolerated dose)” value in data set [2] is 12 mg/kg. In the data set with MDA-MB-231 [1], `c1ccc(-c2ccnc3c2ccc2c(-c4ccccc4)ccnc23)cc1` [Bathophenanthroline] displayed an IC50 of 7.48 ± 1.64 µM. `c1ccc(-c2ccccn2)nc1` [Bipyridine] yielded an IC50 with MDA-MB-231 [1] of 17.5 ± 0.354 µM. For the compound `N.N.[Cl][Pt][Cl]` [Cisplatin], half-maximal inhibition in the data set on MDA-MB-231 [1] (IC50) required 34.6 ± 0.783 µM. `OO` [H2O2, hydrogen peroxide]: in the data set on MDA-MB-231 [3], the “mitochondrial morphology by TEM” value was “distinct cytoplasmic swelling and membrane rupture (white star) is observed; however, the mitochondria structure remains intact”. For the compound `[F][Sb-]([F])([F])([F])([F])[F].[Na+]` [NaSbF6], in the data set on MDA-MB-231 [1], the IC50 is over 50 µM. As for `CN[C@@H]1C[C@H]2O[C@@](C)([C@@H]1OC)n1c3ccccc3c3c4c(c5c6ccccc6n2c5c31)C(=O)NC4` [staurosporine], the “mitochondrial morphology by TEM” value in the data set on MDA-MB-231 [3] is reported as “no distinct morphological changes to mitochondria”.

Values taken from US20240174703A1, “THREE-COORDINATE AU(I) PROBES AND USE IN SELECTIVELY DISRUPTING MITOCHONDRIA IN CANCER CELLS” (University of Kentucky Research Foundation, priority 2021, published 2024).
